Experimental data: US20110212943A1, “NOVEL BRIDGED CYCLIC COMPOUNDS AS HISTONE DEACETYLASE INHIBITORS” (ORCHID RESEARCH LABORATORIES LIMITED, priority 2008, published 2011)

Experiments:
[1] = tested on: HCT 116 (colon), NCIH460 (lung) and U251 (glioma) cell lines; test: Anti-cancer screen (MTT growth inhibition); format: cell-based; settings: mean over HCT 116, NCIH460 and U251 cell lines, 48 hours of incubation
Description: Experimental drugs were screened for anti-cancer activity in three cell lines using five concentrations for each compound. The cell lines—HCT 116 (colon), NCIH460 (lung) and U251 (glioma) were maintained in DMEM containing 10% fetal bovine serum. 96-well microtiter plates are inoculated with cells in 100 μL of cell suspension (5×10^4 cells/mL) for 24 hours at 37° C., 5% CO2, 95% air and 100% relative humidity. A separate plate with these cell lines is also inoculated to determine cell viability before the addition of the compounds (T0)
Following 24-hour incubation, test compounds were added to the 96 well plates. Each plate contains one of the above cell lines and the following samples in triplicate: five different dilutions (0.01, 0.1, 1, 10 and 100 μM) of four test compounds, appropriate dilutions of a cytotoxic standard and growth medium (untreated) wells. Test compounds were dissolved in DMSO to prepare 20 mM stock solutions on the day of drug addition and serial dilutions were carried out in complete growth medium at 2× strength such that 100 μL added to wells gave final concentrations (0.01, 0.1, 1, 10 and 100 μM) in the well. SAHA was used as standard drug in these experiments.
For T0 measurement, 24 hours after seeding the cells, 20 μL of 3-(4,5-dimethyl-2-thiazolyl)-2,5-diphenyl-2H-tetrazolium (MIT) solution per well was added to the ‘T0’ plate and incubated for 3 hours at 37° C. in a CO2 incubator. The plate containing cells and test compounds was treated similarly after 48 hours of incubation. After 3 hours of MTT addition, well contents were aspirated carefully followed by addition of 150 μL DMSO per well. Plates were agitated to ensure dissolution of the formazan crystals in DMSO and absorbance was read at 570 nm (A570).
Percent growth (PG) is calculated relative to the control and zero measurement wells (T0) as follows:
(Mosmann T. Rapid colorimetric assay for cellular growth and survival: application to proliferation and cytotoxicity assays. (J. Immunol. Methods. 1983, 65 (1-2), 55-63; Anne Monks et al). Feasibility of high-flux anticancer drug screen using a diverse panel of cultured human tumor cell lines”. (JNCI, Vol. 83, No. 11, 1991, 757-766).

[2] = target: HDAC (Mouse Liver Extract); test: Histone Deacetylase (HDAC) Inhibition Assay using Boc-Lys (Ac)-AMC Substrate; format: biochemical; settings: Mouse liver enzyme, 30 minutes at 37° C.
Description: Histone Deacetylase (HDAC) Inhibition Assay using Boc-Lys (Ac)-AMC Substrate: Inhibition of HDAC has been implicated to modulate transcription and to induce apoptosis or differentiation in cancer cells. The fluorometric assay provides a fast and fluorescence based method that eliminates radioactivity, extractions or chromatography, as used in traditional assays. The assay is based on two steps. First, the HDAC fluorometric substrate, which comprises an acetylated lysine side chain, is incubated with a sample containing HDAC activity (Mouse Liver Extract). Deacetylation of the substrate sensitizes the substrate, in the second step; treatment with the Trypsin stop solution produces a fluorophore that can be easily analyzed using fluorescence plate reader.
Assay was done in 96-well black microplate and total volume of the assay was 100 μL. Mouse liver enzyme (10 mg/mL) was diluted 1:6 with HDAC buffer. Enzyme cocktail was made of 10 μL of diluted enzyme and 30 μL of HDAC buffer. 40 μL of enzyme cocktail followed by 10 μL of test compound (1 μM and 10 μM) or buffer (control) was added to each well. The plate was pre-incubated at 37° C. for 5 minutes. The HDAC reaction was started by adding 50 μL of HDAC substrate Boc-Lys (Ac)-AMC (Bachem AG, Switzerland). The plate was incubated at 37° C. for 30 minutes. The reaction was stopped by adding 100 μL of Trypsin stop solution and incubating at 37° C. for 15-30 minutes. Measuring the fluorescence at excitation wavelength of 360 nm and emission wavelength of 460 nm monitored the release of AMC. Buffer alone and substrate alone served as blank.

Compound	GI50 [1] [nM]	IC50 [2] [nM]
O=C(/C=C/c1ccc(CNC23CC4CC(CC(C4)C2)C3)cc1)NO [Example 1, (2E)-3-{4-[(adamant-1-ylamino)methyl]phenyl}-N-hydroxyacrylamide]	1800	70
O=C(/C=C/c1ccc(CNC23CC4CC(CC(O)(C4)C2)C3)cc1)NO [Example 2, (2E)-N-hydroxy-3-(4-{[(3-hydroxyadamant-1-yl)amino]methyl}phenyl)acrylamide]	5100	250
COC12CC3CC(CC(NCc4ccc(/C=C/C(=O)NO)cc4)(C3)C1)C2 [Example 3, (2E)-N-hydroxy-3-(4-{[(3-methoxyadamant-1-yl)amino]methyl}phenyl)acrylamide]	5200	260
CCOC12CC3CC(CC(NCc4ccc(/C=C/C(=O)NO)cc4)(C3)C1)C2 [Example 4, (2E)-N-hydroxy-3-(4-{[(3-ethoxyadamant-1-yl)amino]methyl}phenyl)acrylamide]	3300	460
CC12CC3CC(C)(C1)CC(NCc1ccc(/C=C/C(=O)NO)cc1)(C3)C2 [Example 5, (2E)-3-(4-{[(3,5-dimethyladamant-1-yl)amino]methyl}phenyl)-N-hydroxyacrylamide]	1100	30
O=C(/C=C/c1ccc(CN2CC3CC4CC(C3)CC2C4)cc1)NO [Example 6, (2E)-3-[4-(4-azatricyclo[4.3.1.1^3,8]undec-4-ylmethyl)phenyl]-N-hydroxyacrylamide]	2800	110
O=C(/C=C/c1ccc(CNC23CC4CC(CC(Cl)(C4)C2)C3)cc1)NO [Example 7, (2E)-3-(4-{[(3-chloroadamant-1-yl)amino]methyl}phenyl)-N-hydroxyacrylamide]	9700	40
O=C(/C=C/c1ccc(CNC23CC4CC(C2)CC(c2ccccc2)(C4)C3)cc1)NO [Example 8, (2E)-3-(4-{[(3-phenyladamant-1-yl)amino]methyl}phenyl)-N-hydroxyacrylamide]	3500	440
O=C(/C=C/c1ccc(CNC23CC4CC(CC(CO)(C4)C2)C3)cc1)NO [Example 9, (2E)-3-(4-{[(3-hydroxymethyladamant-1-yl)amino]methyl}phenyl)-N-hydroxy acrylamide]	6100	240
O=C(/C=C/c1ccc(CNCC23CC4CC(CC(O)(C4)C2)C3)cc1)NO [Example 11, (2E)-N-hydroxy-3-[4-({[(3-hydroxyadamant-1-yl)methyl]amino}methyl)phenyl]acrylamide]	100	9.06
Nc1ccccc1NC(=O)/C=C/c1ccc(CNC23CC4CC(CC(C4)C2)C3)cc1 [Example 12, (2E)-N-(2-aminophenyl)-3-{4-[(adamant-1-ylamino)methyl]phenyl}acrylamide]	7000	4300
Nc1ccccc1NC(=O)/C=C/c1ccc(CNC23CC4CC(CC(O)(C4)C2)C3)cc1 [Example 13, (2E)-N-(2-aminophenyl)-3-{4-[(3-hydroxyadamant-1-ylamino)methyl]phenyl}acrylamide]	52000	5400
O=C(/C=C/c1ccc(CNC2C3CC4CC(C3)CC2C4)cc1)NO (stereo not shown) [Example 15, (2E)-3-{4-[(adamant-2-ylamino)methyl]phenyl}-N-hydroxyacrylamide]	150	60
O=C(/C=C/c1ccc(CNC2C3CC4CC2CC(O)(C4)C3)cc1)NO (stereo not shown) [Example 16, (2E)-N-hydroxy-3-(4-{[(5-hydroxyadamant-2-yl)amino]methyl}phenyl)acrylamide]	400	160
O=C(C=Cc1ccc(CNCCC2C3CC4CC(C3)CC2C4)cc1)NO (stereo not shown) [Example 17, (2E)-N-hydroxy-3-[4-({[adamant-2-yl)ethyl]amino}methyl)phenyl]acrylamide]	290	0.28
O=C(/C=C/c1ccc(CNCCC2C3CC4CC2CC(O)(C4)C3)cc1)NO (stereo not shown) [Example 19, (2E)-N-hydroxy-3-[4-({[(5-hydroxyadamant-2-yl)ethyl]amino}methyl)phenyl]acrylamide]	220	28
O=C(/C=C/c1ccc(CNC(=O)CC2C3CC4CC(C3)CC2C4)cc1)NO (stereo not shown) [Example 20, (2E)-N-hydroxy-3-(4-{[(adamantyl-2-ylacetyl)amino]methyl}phenyl)acrylamide]	1200	8
O=C(C=C1C2CC3CC(C2)CC1C3)NCc1ccc(/C=C/C(=O)NO)cc1 [Example 21, (2E)-N-hydroxy-3-(4-{[(tricyclo[3.3.1.1^3,7]dec-2-ylideneacetyl)amino]methyl}phenyl)acrylamide]	2100	43
O=C(/C=C/c1ccc(CNC(=O)CC23CC4CC(CC(C4)C2)C3)cc1)NO [Example 23, (2E)-3-(4-{[(adamant-1-ylacetyl)amino]methyl}phenyl)-N-hydroxyacrylamide]	180	1.8
O=C(/C=C/c1ccc(CNC(=O)CC2C3CC4CC2CC(O)(C4)C3)cc1)NO (stereo not shown) [Example 24, (2E)-N-hydroxy-3-[4-({[(5-hydroxyadamant-2-yl)acetyl]amino}methyl)phenyl]acrylamide]	4200	110
O=C(/C=C/c1ccc(CNC(=O)C23CC4CC(CC(C4)C2)C3)cc1)NO [Example 25, N-{4-[(1E)-3-(hydroxyamino)-3-oxoprop-1-en-1-yl]benzyl}adamantane-1-carboxamide]	100	67
O=C(/C=C/c1ccc(CNCC(=O)NC23CC4CC(CC(C4)C2)C3)cc1)NO [Example 28, (2E)-3-[4-({[2-(adamant-1-ylamino)-2-oxoethyl]amino}methyl)phenyl]-N-hydroxyacrylamide]	4400	80
O=C(C=Cc1ccc(CNCCNC(=O)C23CC4CC(CC(C4)C2)C3)cc1)NO [Example 29, N-[2-({4-[(1E)-3-(hydroxyamino)-3-oxoprop-1-en-1-yl]benzyl}amino)ethyl]adamantine-1-carboxamide]	200	10.4
O=C(/C=C/c1ccc(CNCC23CC4CC(CC2C4)C3)cc1)NO [Example 32, (2E)-N-hydroxy-3-(4-{[(tricyclo[3.3.1.0^3,7]non-3-ylmethyl)amino]methyl}phenyl)acrylamide]	10	0.385
O=C(CCCCCCC(=O)Nc1ccccc1)NO [SAHA, suberoylanilide hydroxamic acid, reference compound]	1260	
